The source of these data is PubChem BioAssay (NCI).

Assay in all cases: NCI tumour cell line growth inhibition, 48 h
Test [1] deals with HCT-15 colon.
In test [2] the test system is SK-OV-3 ovarian.
In test [3] the test system is A498 renal.
Test [4] concerns CAKI-1 renal.
Test [5] relates to COLO 205 colon.
For test [6], the system named is UACC-257 melanoma.
Test [7] deals with RXF 393 renal.
Test [8] relates to HOP-62 NSCLC.
Test [9] deals with ACHN renal.
Test [10] concerns SNB-75 CNS.
Test [11] deals with SN12C renal.
The test system of test [12] is OVCAR-5 ovarian.
Test [13] relates to SK-MEL-5 melanoma.
Test [14] relates to M14 melanoma.
For test [15], the system named is NCI-H226 lung.
In test [16] the test system is HS 578T breast.
In test [17] the test system is T-47D breast.

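Compound exposure: 48 hours, 5 concentrations, 96-well plates. Abbreviation: GI50, concentration required for 50% inhibition of growth. TGI is the concentration that stops growth completely.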

Turning to `CC1(C)O[C@@H](C[C@]2(C#N)C[C@H](CCl)OC(C)(C)O2)C[C@@H](C#N)O1`, the TGI in test [1], in [2], in test [3], in [4], in [5] and in test [6] was above 100 µM each time. In addition, the TGI in test [7], in [8], in test [9], in test [10], in test [11] and in test [12] was above 100 µM each time. The TGI in [13], in [14] and in test [15] was above 100 µM in each case.

For the molecule `Cc1c2cccc-2ccc2c3ccccc3n(C(=O)c3ccc(Cl)cc3)c12`, the TGI in test [1], in [2], in [3], in test [4], in test [5] and in test [16] was above 100 µM each time. Also, the TGI in test [6], in [7], in test [8], in [9], in test [10] and in [11] was above 100 µM throughout. Further, the TGI in test [12], in [13], in [14] and in [15] was above 100 µM throughout.

`N#Cc1c(N)nc2c3c1NC(=O)C(C(N)=O)C3c1ccccc1O2` (stereo not given): the TGI in test [1], in test [2], in [3], in test [4], in [5] and in test [6] was above 100 µM throughout. In addition, the TGI in test [7], in [8], in [9], in test [10], in test [11] and in test [12] was above 100 µM throughout. The TGI in test [13], in test [14], in [17] and in test [15] was above 100 µM throughout.

Take `Cn1c(=O)sc2cc(C(=S)N3CCCCC3)ccc21`: the TGI in test [1], in [2], in test [3], in test [4], in [5] and in test [16] was above 100 µM each time. Moreover, the TGI was above 100 µM in test [6]; above 100 µM in test [7]; above 100 µM in test [8]; above 100 µM in test [9]; 86.5 µM in test [10]; above 100 µM in [11]. For the same molecule, the TGI in [12], in test [13], in test [14] and in test [15] was above 100 µM in each case.

For the molecule `C=C1C(C)C2C(Cc3ccccc3)NC(=O)C23OC(=O)/C=C\CC(=O)CCC(C)C/C=C/C3C1O` (stereo not given), the TGI in test [1] came to 4.41 µM; in test [2], 19 µM; in test [3] it was 5.32 µM; in test [4], 2.24 µM; in [5], 5.09 µM; in test [6] it was 3.89 µM. Besides, the TGI in test [7] is 1.42 µM; in test [8], 7.33 µM; in test [10] it was 2.64 µM; in test [11] it was 5.93 µM; in test [12] it was 25.2 µM; in [13], 16.3 µM. Further, the TGI in [15] was determined as 10.3 µM. The GI50 in [4] is 0.474 µM; in test [10], 0.594 µM; in test [15], 0.635 µM.

`Nc1c(S(=O)(=O)O)cc(S(=O)(=O)O)c2ccc(N=Nc3ccc(/C=C/c4ccc(N=Nc5ccc6c(S(=O)(=O)O)cc(S(=O)(=O)O)c(N)c6c5O)cc4S(=O)(=O)O)c(S(=O)(=O)O)c3)c(O)c12`: the TGI in test [1], in test [2], in [3], in [5], in [6] and in test [7] was above 100 µM each time. The TGI in test [8], in [10], in [11], in test [12], in [13] and in test [15] was above 100 µM in each case.

Take `CCN(CC)C(=O)Cn1c2c(c3ccccc31)CCCC2`: the TGI in test [1], in test [2], in test [3], in test [4], in test [5] and in test [16] was above 100 µM throughout. Besides, the TGI in test [6], in test [8], in test [9], in test [11], in test [12] and in [13] was above 100 µM throughout. In [14], the TGI is above 100 µM.

As to `O=C1NC(Cc2ccc(O)cc2)C(=O)NC1Cc1ccc(O)cc1` (stereo not given), the TGI in test [1], in [2], in test [3], in test [4], in [5] and in test [16] was above 100 µM in each case. The TGI in test [6], in test [7], in [8], in test [9], in test [10] and in [11] was above 100 µM each time. The TGI in test [12], in [13], in [14] and in [15] was above 100 µM in each case.

For `CCOc1cc2c(cc1O)C(O)C[C@@H]1[C@@H]2CC[C@]2(C)[C@@H](O)CC[C@@H]12` (stereo not given in full), the TGI in [1] was above 100 µM; in [2], above 100 µM; in [3], 0.497 µM; in test [4] it was above 100 µM; in test [5] it was 60.8 µM; in test [16], above 100 µM. Moreover, the TGI in test [6] was above 100 µM; in [7], 5.25 µM; in test [8], above 100 µM; in test [9], above 100 µM; in test [10] it was above 100 µM; in [11], above 100 µM. For the same molecule, the TGI in test [12], in [14] and in test [15] was above 100 µM throughout.
